Reference: patent US11839612B1, “Compounds and combinations thereof for treating neurological and psychiatric conditions” (priority 2022, dated 2023)
“Also recorded” adds a separate entry of the source.

Columns and labels:
[1] = Pharmacokinetics in subjects with moderate renal impairment vs matched controls
Text: (§1) Data are GMRs and 90% CIs. Reference used are the matched healthy subjects for renal and hepatic impairment studies, and extensive or ultra-extensive CYP2D6 metabolizers.

[2] = Food effect on pharmacokinetics of the subject combination; type: in vivo, human; conditions: subject combination administered with food
[3] = Pharmacokinetics in CYP2D6 poor metabolizers vs extensive metabolizers
Text: Approximately 7 to 10% of Caucasians and 3 to 8% of African Americans lack the capacity to metabolize CYP2D6 substrates and are classified as poor metabolizers.
as §1

[4] = Co-administration of paroxetine (strong CYP2D6 inhibitor) and the subject combination
Text: Co-administration of the SSRI paroxetine and the subject combination was studied in 29 healthy volunteers.

plasma protein = experiment: Plasma protein binding
[5] = Pharmacokinetics after administration of the subject combination (steady state); conditions: human, in vivo; for half-life: mean elimination half-life
[6] = 7 subjects with moderate renal impairment (GFR 30-60 mL/min) vs 6 matched controls with normal renal function
[7] = patients having moderate renal impairment
[8] = 3 poor metabolizers compared to extensive metabolizers
[9] = 20 mg paroxetine concomitantly with tablet twice daily vs tablet twice daily without paroxetine

CC(NC(C)(C)C)C(=O)c1cccc(Cl)c1 (racemic) [bupropion]
concentrations compared with patients with healthy renal function ([1]; human, in vivo): higher
increase in AUC0-2 ([1]; human, in vivo): 1.80 fold
increase of exposure ([1]; human, in vivo): approximately 2 fold
reduction of clearance ([1]; human, in vivo): 50%

COc1ccc2c(c1)[C@]13CCCC[C@@H]1[C@H](C2)N(C)CC3 [dextromethorphan]
AUC0-2 decrease with food [2]: 14%
Cmax change with food [2]: unchanged
increase of exposure [1, 6]: approximately 2 fold
reduction of clearance [1, 6]: 50%
concentrations compared with patients with healthy renal function [1, 7]: higher
increase in AUC0-2 [1, 7]: 2.21 fold
increase in AUC0-12 [3, 8]: ~3.4 fold
increase in Cmax [3, 8]: ~3 fold
plasma concentrations in CYP2D6 poor metabolizers compared with non-poor metabolizers ([3]; steady state, subject combination): increases; also recorded: generally higher
increase in AUC0-2 [4, 9]: 2.69 fold
increase in Cmax [4, 9]: 2.38 fold
change of overall exposure by paroxetine ([4]; 29 healthy volunteers, paroxetine co-administered with the subject combination): 2.5 fold
plasma concentrations with concomitant strong CYP2D6 inhibitor ([4]; concomitant use of the subject combination with a strong CYP2D6 inhibitor): increases
fraction unbound (plasma protein): 0.3 to 0.4
Tmax [5]: ~3 h
half-life ([5]; following 8 days of administration of the subject combination in extensive metabolizers): ~22 h
half-life ([5]; subject combination): 22 h
